Reference: patent US8778984B2, “Aldosterone synthase inhibitor” (Eli Lilly and Company, priority 2011, dated 2014)

How the values were obtained:
[1] = tested on: aldosterone production in rats; assay: Inhibition of Aldosterone Synthase in Rats (rat sodium-deficiency diet model); format: in vivo; details: for % Inhibition 3 hrs / % Inhibition 6 hrs: inhibition of aldosterone vs vehicle; for % Inhibition 3 hrs / Aldosterone (pg/mL) 3 hrs: 3 hrs post oral dose; for % Inhibition 3 hrs / % Inhibition 6 hrs / Aldosterone (pg/mL) 3 hrs / Aldosterone (pg/mL) 6 hrs: Example 1 10.0 mg/kg, Example 49 30.0 mg/kg, Fadrozole 1.0 mg/kg; for % Inhibition 6 hrs / Aldosterone (pg/mL) 6 hrs: 6 hrs post oral dose; for effect on aldosterone production in vivo (in words) / Aldosterone (pg/mL) 3 hrs / Aldosterone (pg/mL) 6 hrs: rat Na-deficient diet model; for effect on aldosterone production in vivo (in words): summary of Table 18; for Aldosterone (pg/mL) 3 hrs / Aldosterone (pg/mL) 6 hrs: serum
Protocol: The effect of compounds on aldosterone production in rats is assessed using the rat sodium-deficiency diet model. […] At 3 hours post dose rats are bled (˜0.5 mL) from the ocular orbit under isoflurane anesthesia. At 6 hours post-dose the rats are euthanized with CO2 and bled by cardiac puncture. Blood samples are clotted at least 30 minutes and serum is prepared and stored at approximately −80° C. until assayed. Aldosterone, steroids, and compound exposure are analyzed by mass spectroscopy.

human cyp11B1 = molecular target: T1, human cyp11B1 (Homo sapiens, UniProt P15538); assay: Cortisol Inhibition Assay (V79-human cyp11B1 cells, cortisol by LC-MS); format: cell-based; details: for Selectivity Ratio: IC50(hcyp11B1)/IC50(hcyp11B2); for IC50: V79-human cyp11B1 cells, cortisol production from 1 μM 11-deoxycortisol, 24 hours incubation, read-out: IC50 (hcyp11B1)
T1 construct: expressed in transfected cells
T1 sequence (P15538 25-503): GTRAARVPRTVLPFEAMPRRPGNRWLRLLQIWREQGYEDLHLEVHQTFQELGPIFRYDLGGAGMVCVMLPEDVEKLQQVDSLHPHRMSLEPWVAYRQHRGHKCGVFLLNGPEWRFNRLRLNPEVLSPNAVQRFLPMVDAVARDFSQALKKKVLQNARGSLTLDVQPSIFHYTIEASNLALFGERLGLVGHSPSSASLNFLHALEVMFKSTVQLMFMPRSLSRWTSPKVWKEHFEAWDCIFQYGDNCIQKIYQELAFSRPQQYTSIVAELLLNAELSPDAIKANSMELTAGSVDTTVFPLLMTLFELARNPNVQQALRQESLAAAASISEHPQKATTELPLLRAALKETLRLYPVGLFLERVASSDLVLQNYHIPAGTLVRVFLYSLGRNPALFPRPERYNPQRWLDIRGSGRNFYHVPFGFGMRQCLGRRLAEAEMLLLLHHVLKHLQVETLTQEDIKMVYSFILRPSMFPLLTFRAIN
Protocol: Chinese hamster fibroblast cells (V79) constitutively expressing human cyp11B1 are established by transfection with a mammalian expression vector harboring the human cyp11B1 cDNA under CMV promoter and a neomycin antibiotic resistant gene for selection in mammalian cells. V79 cells are transfected in T225 cm^2 flasks with the lipofectamine transfection reagent and the human cyp11B1 cDNA. Positive clones are selected with the selection antibiotic geneticin at 1 mg/mL. Cortisol production from transfected cells is initiated by the addition of 1 μM 11-deoxycortisol in the medium. After 24 hours incubation, culture medium is collected and cortisol concentration in the medium is determined using a liquid chromatography-mass spectrometry (LC-MS) method. The cell media (100 μL) is transferred to a new deep-well 96-well plate. A Beckman Coulter FX liquid handling system (modified for use with organic solvents) with a 96-tip head is used to add an IS solution to each well (10 μl of 200 ng/mL d-4-cortisol). The wells are then extracted 3× with EtOAc (300 μl) using the FX, combining the organic layers in a new deep-well 96-well plate. The solvent is then dried in a GeneVac HT-4 or under nitrogen. The FX is then used to reconstitute the samples in 50% MeOH/water (100 μl) and the plates are heat-sealed.
A 40 μl aliquot of the sample is injected and a gradient from 20-100% MeOH in 0.95 min is initiated. […] Starting conditions are then held for 1 minute to re-equilibrate the column. An ABI QTRAP 4000 tandem mass spectrometer is used for MS/MS analysis in the positive ion mode. […] These are respectively integrated to give the peak areas. The cortisol/IS area-ratio is used to determine cortisol concentration by comparison to a standard curve. The detection limit for cortisol is 1 ng/mL.
11-Deoxycortisol and various concentrations of test compounds in 1:3 dilution increments are added to the cell culture medium. After 24 hours incubation, 100 μl of cell medium are collected and cortisol concentration determined as described above. Data are fit to a 4 parameter-fit logistics curve to determine IC50 values.

| SMILES | % Inhibition 3 hrs [1] | % Inhibition 6 hrs [1] | effect on aldosterone production in vivo (in words) [1] | Aldosterone (pg/mL) 3 hrs [1] | Aldosterone (pg/mL) 6 hrs [1] | Selectivity Ratio (human cyp11B1) | IC50 (human cyp11B1) |
| --- | --- | --- | --- | --- | --- | --- | --- |
| CC1(C)CC(c2ccc(C#N)cc2F)c2cn[nH]c21 (single isomer, unassigned; isomer 1) [Example 49, 4-(6,6-Dimethyl-4,5-dihydro-1H-cyclopenta[c]pyrazol-4-yl)-3-fluoro-benzonitrile, isomer 1] | 46% | 33% | inhibit aldosterone production in vivo | 1008 pg/mL | 1704 pg/mL | 44.4 | 311 nM |
| CC1(C)C[C@H](c2ccc(C#N)cc2)c2cn[nH]c21 (single isomer, unassigned) [Example 1] | 48% | 46% | inhibit aldosterone production in vivo | 973 pg/mL | 1380 pg/mL | 33.0 | 165 nM |
